Converted amounts (≈) assume the structure as drawn. Where two headings read alike, the source gives them in different places. Where a SMILES comes first, the peptide text is derived from it.
How the values were obtained:
[1] = test system: Acinetobacter baumannii AYE; format: cell-based; conditions: AYE; for MIC on initial panels: medium and unit not given; for MIC on initial panels / MIC: in µg/mL
[2] = test system: Klebsiella pneumoniae NCTC 13368; format: cell-based; conditions: for MIC, Stability in serum (MH) / MIC on initial panels / MIC: in µg/mL; for MIC on initial panels: medium and unit not given
human red blood cells = experiment: Haemolysis assay; conditions: for Toxicity HC50, Peptide concentration: red cells of human, 1 h
Experimental: Haemolysis assay. Haemolysis was tested by incubating titrations of AMPs in PBS with freshly collected human red blood cells for 1 hour at 37 C. Control wells were treated with 0.1% Triton-X-100 to ensure complete lysis, or PBS-only to represent no lysis. Samples were spun down to remove non-lysed cells and the OD^550 of the supernatant was measured using a Clariostar plate reader. The percentage of haemolysis was calculated as % haemolysis=(AP−AB)/(AC−AB)×100, where AP is the absorbance value for a known peptide concentration, AC is the absorbance of the 0.1% Triton-X-100 control, AB is the absorbance of the PBS control. Data presented are averages and standard error from three biological replicate experiments.
Methods: The natural AMP (termed AMP1) was modified to produce synthetic variants, AMPs 1a, 2a, 2b, 3a and 3b. Minimum inhibitory concentrations (MICs) were determined using the microbroth dilution assay with Mueller Hinton broth (MHB) or RPMI (with 5% FBS) and stability in serum was tested by conducting MICs in MHB containing 10% FBS. Synergy experiments were performed following a checkerboard protocol. Cytotoxicity was tested against HEK293 and HeLa immortalised human cell-lines using the XTT viability stain and by quantifying haemolysis of human red blood cells. Patch clamp analysis was performed using the Port-a-Patch® automated patch-clamp system on DPhPE/DPhPG (model for a Gram-negative plasma membrane) or DPhPG (Gram-positive) model membranes challenged with peptide. The murine lung infection model was performed using the agar bead model with Staphylococcus aureus strain NCTC 13616 (EMRSA-15).

[3] = test system: VS Enterococcus faecalis NCTC 775; experiment: Antibacterial activity assay (broth microdilution MIC); format: cell-based; conditions: for MIC, Peptide concentration: Mueller-Hinton broth; for MIC on initial panels: VSE775, medium and unit not given, in µg/mL
Klebsiella pneumoniae M6 = format: cell-based; conditions: for MIC on initial panels: medium and unit not given
VRE12201 = experiment: Antibacterial activity assay (broth microdilution MIC); format: cell-based, Enterococcus faecalis; conditions: medium and unit inferred
Excerpt: Antibacterial activity assay.
The bacterial strains used are as in the above examples. A table of strains is provided below to aid understanding.

[4] = test system: Acinetobacter baumannii ATCC 17978; format: cell-based; conditions: in µg/mL; for MIC on initial panels / MIC: AB17978; for MIC on initial panels: medium and unit not given; for MIC, Stability in serum (MH): Ab17978
HeLa = experiment: Cytotoxicity assay (XTT); format: cell-based, human; parameters: Toxicity HeLa: unit not given beside the values; conditions: for Toxicity HeLa: unit not given; for Toxicity HeLa (EC50), Peptide concentration: value printed in parentheses
In short: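 Cells seeded 24 h in EMEM with 10% FBS and NEAA at 37 °C, 10% CO2, then medium replaced with peptide dilutions. After a further 24 h exposure, viability read by XTT tetrazolium staining.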

[5] = test system: EMR Staphylococcus aureus-16 (EMRSA-16); format: cell-based; conditions: EMRSA16; for MIC on initial panels: medium and unit not given, in µg/mL; for MIC: untitled table, medium/unit inferred, values match RPMI of Table 2
[6] = test system: Escherichia coli NCTC 12923; format: cell-based; conditions: EC12923; for MIC on initial panels: medium and unit not given; for MIC on initial panels / MIC: in µg/mL
[7] = Electrophysiology (Port-a-Patch patch-clamp) on model membranes
Excerpt: The depth of insertion into each membrane is shown as the Z-position for each residue, averaged over all four peptides, relative to the phosphate group plane in the upper POPE/POPG (A/E/I) or POPG (C/G/K) bilayer leaflet in six MD simulations. Positive or negative values indicate the peptides are below or above the phosphate group. Representative current traces illustrating membrane activity when DPhPE/DPhPG (B/F/J) or DPhPG (D/H/L) model membranes are challenged with each peptide at the indicated concentration (lowest concentration that induced detectable activity). Data is for pleurocidin (A-D), pleurocidin-KR (E-H) and pleurocidin-VA (I-L). Membrane disordering by each peptide in mixed POPE/POPG bilayers is shown with data obtained from ^2H solid-state NMR (M/N) or from MD simulations where order parameters are calculated for all lipids within 4 Å of a peptide (O/P).
Molecular dynamics simulations. Simulations were carried out on either the ARCHER Cray XC30 supercomputer, or Dell Precision quad core T3400 or T3500 workstations equipped with a 1 kW Power supply (PSU) and two NVIDA PNY GeForce GTX570 or GTX580 graphics cards using Gromacs.^53 The CHARMM36 all-atom force field was used in all simulations^54-56. All simulations were run, as described previously^20 and for a total of 200 nanoseconds and repeated twice, with peptides inserted at different positions and orientations, giving a total of approximately 4.0 μs simulation. Liposome preparation and circular dichroism (CD) spectroscopy. Small unilamellar vesicles (SUV) were produced and far-UV spectra of the peptides obtained as described previously^20 using a Chirascan Plus spectrometer (Applied Photophysics, Leatherhead, UK) with samples maintained at 310 K. For liposome experiments the lipid concentration was 5 mM and a peptide to lipid molar ratio of 1:100 was maintained while the SDS micelles concentration was 20 mM with 200 μM peptide. Electrophysiology experiments (Patch-clamp). Patch clamp experiments were performed using the Port-a-Patch® (Nanion Technologies GmbH, Munich, Germany) with giant unilamellar vesicles (GUVs) composed of DPhPE/DPhPG (60:40, mol:mol) or DPhPG prepared by the electroformation method using the Nanion Vesicle Prep Pro setup (Nanion Technologies GmbH, Munich, Germany) as described previously.^20
Synergy experiments were performed following a checkerboard protocol.

[8] = untitled table, medium/unit not given, values match RPMI of Table 2
[9] = KP13368, Serum (10% fetal bovine serum)
[10] = KP13368, untitled table, medium/unit not given, values match RPMI of Table 2
[11] = untitled table, medium/unit not given, values match RPMI of Table 2, in µg/mL

SMILES	MIC, Stability in serum (MH) ([1]; No serum) [µg/mL]	MIC, Stability in serum (MH) ([1]; Serum (10% fetal bovine serum)) [µg/mL]	MIC on initial panels [1]	MIC [1, 8]	MIC, Stability in serum (MH) ([2]; KP13368, No serum)	MIC, Stability in serum (MH) [2, 9]	MIC on initial panels ([2]; KP13368)	MIC [2, 10]	Toxicity HC50, Peptide concentration (human red blood cells) [µg/mL]	MIC, Peptide concentration [3]	MIC on initial panels [3]	MIC, Stability in serum (MH) (Klebsiella pneumoniae M6; No serum) [µg/mL]	MIC, Stability in serum (MH) (Klebsiella pneumoniae M6; Serum (10% fetal bovine serum)) [µg/mL]	MIC on initial panels (Klebsiella pneumoniae M6; in µg/mL)	MIC (Klebsiella pneumoniae M6; [11])	MIC on initial panels [4]	MIC [4, 8]	MIC, Stability in serum (MH) ([4]; No serum)	MIC, Stability in serum (MH) ([4]; Serum (10% fetal bovine serum))	Toxicity HeLa (HeLa)	other results
CC(C)C[C@@H](NC(=O)[C@@H](Cc1ccc(O)cc1)NC(=O)[C@@H](Cc1c[nH]cn1)NC(=O)[C@H](NC(=O)[C@@H](CC(C)C)NC(=O)[C@@H](C)NC(=O)[C@@H](C)NC(=O)[C@@H](CCCNC(=N)N)NC(=O)CNC(=O)[C@H](NC(=O)[C@@H](Cc1c[nH]cn1)NC(=O)[C@@H](CCCNC(=N)N)NC(=O)CNC(=O)[C@H](NC(=O)[C@@H](Cc1c[nH]cn1)NC(=O)[C@@H](C)NC(=O)[C@@H](C)NC(=O)[C@@H](CCCNC(=N)N)NC(=O)[C@@H](CCCNC(=N)N)NC(=O)[C@@H](Cc1ccccc1)NC(=O)[C@@H](Cc1ccccc1)NC(=O)[C@@H](CO)NC(=O)CNC(=O)[C@@H](Cc1c[nH]c2ccccc12)NC(=O)CN)C(C)C)C(C)C)[C@H](C)O)C(N)=O [D-pleurocidin-KR] (HELM PEPTIDE1{G.[dW].G.[dS].[dF].[dF].[dR].[dR].[dA].[dA].[dH].[dV].G.[dR].[dH].[dV].G.[dR].[dA].[dA].[dL].[dT].[dH].[dY].[dL].[am]}$$$$V2.0; N-terminus assumed)	2 (≈ 0.709 µM)	0.5 (≈ 0.177 µM)	2	2	2	1	2	4	~400	8 (NG) μg/ml	8	2 (≈ 0.709 µM)	0.5 (≈ 0.177 µM)	2	4	2	4	2	0.5	25.3 ± 2.2	therapeutic index over red blood cell haemolysis (human red blood cells): at least 100 fold; MIC on initial panels (VRE12201): 8 µg/mL (≈ 2.83 µM); Toxicity HeLa (EC50), Peptide concentration (HeLa): (25.3 ± 2.2) μg/ml; MIC on initial panels [5]: 4; MIC [5]: 1 µg/mL (≈ 0.354 µM); MIC, Stability in serum (MH) ([6]; No serum): 1 µg/mL (≈ 0.354 µM); MIC, Stability in serum (MH) ([6]; Serum (10% fetal bovine serum)): 0.25 µg/mL (≈ 0.0886 µM); MIC on initial panels [6]: 1; MIC [6, 8]: 2
CC(C)C[C@H](NC(=O)[C@H](Cc1ccc(O)cc1)NC(=O)[C@H](Cc1c[nH]cn1)NC(=O)[C@@H](NC(=O)[C@H](CC(C)C)NC(=O)[C@H](C)NC(=O)[C@H](C)NC(=O)[C@H](CCCCN)NC(=O)CNC(=O)[C@@H](NC(=O)[C@H](Cc1c[nH]cn1)NC(=O)[C@H](CCCCN)NC(=O)CNC(=O)[C@@H](NC(=O)[C@H](Cc1c[nH]cn1)NC(=O)[C@H](C)NC(=O)[C@H](C)NC(=O)[C@H](CCCCN)NC(=O)[C@H](CCCCN)NC(=O)[C@H](Cc1ccccc1)NC(=O)[C@H](Cc1ccccc1)NC(=O)[C@H](CO)NC(=O)CNC(=O)[C@H](Cc1c[nH]c2ccccc12)NC(=O)CN)C(C)C)C(C)C)[C@@H](C)O)C(N)=O [Pleurocidin, reference compound] (H-GWGSFFKKAAHVGKHVGKAALTHYL-NH2; N-terminus assumed)	2 (≈ 0.738 µM)	2 (≈ 0.738 µM)	1-2	4-8	4	8	4-8	32	~400	64 (NG) μg/ml	64	4 (≈ 1.48 µM)	8 (≈ 2.95 µM)	4	32	1-2	8	2	2	58.2 ± 3.9	MIC ([1]; (MH)): 1-2; MIC ([1]; (RPMI)): 4-8; Peptide concentration necessary to start membrane activity ([7]; DPhPE/DPhPG): 10 µM; Peptide concentration necessary to start membrane activity ([7]; DPhPG): 5 µM; MIC ([2]; Klebsiella pneumoniae KP13368, (MH)): 4-8; MIC ([2]; Klebsiella pneumoniae KP13368, (RPMI)): 32; MIC, Peptide concentration ([2]; NCTC 13368): 3 µg/mL (≈ 1.11 µM); MIC (Klebsiella pneumoniae M6; (MH), in µg/mL): 4; MIC (Klebsiella pneumoniae M6; (RPMI), in µg/mL): 32; MIC ([4]; (MH)): 1-2; MIC ([4]; (RPMI)): 8; Toxicity HeLa (EC50), Peptide concentration (HeLa): (58.2 ± 3.9) μg/ml; MIC on initial panels [5]: 16; MIC [5]: 4 µg/mL (≈ 1.48 µM); MIC ([6]; (MH)): 1-2; MIC ([6]; (RPMI)): 16; MIC, Stability in serum (MH) ([6]; No serum): 2 µg/mL (≈ 0.738 µM); MIC, Stability in serum (MH) ([6]; Serum (10% fetal bovine serum)): 1 µg/mL (≈ 0.369 µM); MIC on initial panels [6]: 1-2; MIC [6, 8]: 16

Reference: patent US20230047825A1, “ANTIMICROBIAL PEPTIDES” (priority 2019, published 2023)
